# Measurements published in US20200078471A1, “RENAL CLEARABLE DRUG DELIVERING NANOPARTICLES AND METHODS OF USE THEREFOR” (priority 2018, published 2020).
# “Also recorded” adds a separate entry of the source.
# Tests used:
# [1] = Pharmacokinetic study, DOX in blood
# Experimental: Clearance, physiological stability, and elimination. […] Since DOX is highly fluorescent, the fluorescence signals were collected at 610 nm with excitation at 470 nm. […] Extraction was performed at −20° C. for overnight and supernatant was obtained after centrifugation at 15,000 g for 10 min. The DOX concentrations were quantified based on fluorescence analysis. […] For pharmacokinetic study, the DOX concentrations in blood were analysed using HPLC with the same approach described above.
# 4T1 lung metastasis = assay: Metastatic lung cancer model, nodule count and size; assay type: in vivo, female Balb/c mice; conditions: 5 mg/kg DOX equivalent ×5, day 23
# [2] = Renal clearance (urine DOX by HPLC, gold by ICP-MS); assay type: in vivo, female CD-1 mice; conditions: 24 hr p.i., intravenous
# Text: (§1) Clearance, physiological stability, and elimination. […] The DOX concentrations were quantified based on fluorescence analysis.
# [3] = test system: MCF-7 human breast cancer xenograft; assay: Tumor targeting efficiency; assay type: in vivo, nude mice; conditions: 12 hr p.i., DOX 5 mg/kg i.v.
# Experimental: Tumor targeting, penetration and antitumor efficacy studies. […] The tumors were collected and homogenized and DOX concentrations were measured using the same approaches described in the biodistribution studies. The ex vivo tumor fluorescence imaging was acquired using a Carestream Molecular imaging system In-Vivo FX PRO with an excitation filter of 470±10 nm and an emission filter of 600±20 nm. […] The mice were sacrificed 12 hr and 3 days p.i. respectively. Tumor tissues were fixed, embedded in paraffin and sliced before haematoxylin and eosin (H&E), and silver staining. To enable visualization of AuNPs in the tumor issues, dewaxed tumor slides were incubated with silver nitrate (0.1 M) and hydroquinone (2 mM) for 15 min at room temperature, followed by washing with pure water and haemotoxylin and eosin staining (Du et al., 2017). […] The length (L) and width (W) of the tumors were measured with a digital calliper and the volume (V) was calculated by the equation V=½ LW^2. The body weights were also monitored during the treatment. […] For survival study, the tumor bearing mice were treated same with therapeutic study, and tumor sizes were monitored. […] To establish the metastatic lung cancer model, female Balb/c mice were implanted with 4T1 mammary cancer cells subcutaneously and the cancer cells would be readily developed as lung metastatic nodules after a week.
# [4] = Acute toxicity, successive treatment (body weight, blood chemistry, H&E)
# Experimental: (§2) Toxicity studies. […] For blood chemistry study, the blood was collected through cardiac puncture 15 days p.i. and kept on ice for 30 min for coagulation. […] The organs and tissues were also collected, fixed in formalin (10%) and embedded in paraffin before H&E staining and pathological evaluation. […] The mice were sacrificed on 10 days p.i. and the blood were extracted via cardiac puncture.
# [5] = DOX and AuNP biodistribution in organs and tissues; assay type: in vivo, CD-1 mice
# Text: as §1
# [6] = Maximal tolerated dose, single dose; conditions: single i.v. dose, 10 days
# Experimental: as §2
# [7] = equivalent DOX 5 mg/kg ×5, within 10 days
compound,measurement,setting,value
"COc1cccc2c1C(=O)c1c(O)c3c(c(O)c1C2=O)C[C@@](O)(C(=O)CO)C[C@@H]3O[C@H]1C[C@H](N)[C@H](O)[C@H](C)O1 [free DOX, doxorubicin]",24-h area under curve (AUC),[1]; DOX in blood,2.2 % ID·h/g
same,distribution half-life t1/2a,"[1]; plasma, CD-1 mice",4.8 min
same,count of metastatic tumor nodules in the lungs (per mouse),4T1 lung metastasis,62.6±30.5
same,size of metastatic lung tumor nodules,4T1 lung metastasis,1.64±0.77 mm
same,DOX-based renal clearance (renally cleared DOX),[2],6.1±1.1 % ID
same,tumor targeting of DOX,[3],0.79±0.22 % ID/g
same,hepatocyte anisocaryosis and anisocytosis (H&E liver),[4]; 15 days p.i.,increase in hepatocyte anisocaryosis and anisocytosis; also recorded: evident
same,hepatocyte nuclei size distribution width,[4]; 15 days p.i.,significant higher distribution width
same,"pathological signs in heart, kidney, spleen and muscle",[4]; 15 days p.i.,no observable pathological signs
same,"blood chemistry, liver function (ALT, AST, ALKP, albumin)","[4]; 15 days p.i., 5 mg/kg ×5",increased alanine aminotransferase (ALT) and aspartate aminotransferase (AST) levels and decreased alkaline phosphatase (ALKP) and albumin levels in serum
same,"blood chemistry, renal function (BUN, CREA)","[4]; 15 days p.i., 5 mg/kg ×5",increased blood urea nitrogen (BUN) and creatinine (CREA) levels in serum
same,body weight loss,[4]; [7],~10%
same,mortality,[4]; [7],25%
same,DOX distribution in the kidneys,[5]; 1 hr p.i.,11.4 % ID/g
same,DOX accumulation in the liver,[5]; 24 h p.i.,even lower accumulation in the liver
same,decrease of muscle DOX from 1 to 24 h,"[5]; mouse, in vivo",19.7%
same,"maximal tolerance dose (MTD, in terms of DOX)",[6],10 mg/kg body weight
